Experiments:
cells = format: cell-based; details: HEK293, 3 h
[1] = target: Sodium- and chloride-dependent GABA transporter 1 (Mus musculus, UniProt P31648); format: cell-based, HEK293
HEK293 [2] = experiment: Inhibition of mouse GAT4-mediated [3H]GABA uptake expressed in human HEK cells assessed as specific binding remaining at 1 mM; format: cell-based
[3] = target: Sodium- and chloride-dependent GABA transporter 1 (Mus musculus) (UniProt P31648); experiment: Inhibition of mouse GAT1-mediated [3H]GABA uptake expressed in human HEK cells assessed as specific binding remaining at 1 mM; format: cell-based; details: HEK293
HEK293 [4] = experiment: Inhibition of mouse GAT4-mediated [3H]GABA uptake expressed in human HEK cells assessed as specific binding remaining at 100 µM
[5] = target: T1, GABA transporter 4 (Mus musculus) (UniProt P31650); experiment: Inhibition of mouse GAT3-mediated [3H]GABA uptake expressed in human HEK cells assessed as specific binding remaining at 100 µM; details: HEK293
T1 sequence (whole entry): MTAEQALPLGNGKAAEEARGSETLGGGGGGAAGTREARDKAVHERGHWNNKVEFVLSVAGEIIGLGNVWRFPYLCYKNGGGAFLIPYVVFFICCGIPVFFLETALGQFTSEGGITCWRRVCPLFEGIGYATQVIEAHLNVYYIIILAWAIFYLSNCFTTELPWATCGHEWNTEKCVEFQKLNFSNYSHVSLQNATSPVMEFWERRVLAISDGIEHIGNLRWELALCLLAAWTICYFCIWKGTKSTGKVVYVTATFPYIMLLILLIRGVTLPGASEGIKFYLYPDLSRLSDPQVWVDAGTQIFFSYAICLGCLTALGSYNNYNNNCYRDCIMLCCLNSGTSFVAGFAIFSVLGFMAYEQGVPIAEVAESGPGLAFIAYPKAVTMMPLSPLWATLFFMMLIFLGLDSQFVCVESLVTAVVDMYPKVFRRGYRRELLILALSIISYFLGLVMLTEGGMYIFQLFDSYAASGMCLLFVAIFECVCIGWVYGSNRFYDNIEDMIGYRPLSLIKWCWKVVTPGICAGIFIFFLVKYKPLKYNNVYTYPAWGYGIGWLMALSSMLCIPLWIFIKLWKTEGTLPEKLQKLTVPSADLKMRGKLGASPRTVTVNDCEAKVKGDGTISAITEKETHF

[6] = target: Sodium- and chloride-dependent GABA transporter 1 (Mus musculus) (UniProt P31648); experiment: Inhibition of mouse GAT1-mediated [3H]GABA uptake expressed in human HEK cells assessed as specific binding remaining at 100 µM; details: HEK293
[7] = target: T2, GABA transporter 3 (Mus musculus) (UniProt P31649); experiment: Inhibition of mouse GAT2-mediated [3H]GABA uptake expressed in human HEK cells assessed as specific binding remaining at 100 µM; details: HEK293
T2 sequence (whole entry): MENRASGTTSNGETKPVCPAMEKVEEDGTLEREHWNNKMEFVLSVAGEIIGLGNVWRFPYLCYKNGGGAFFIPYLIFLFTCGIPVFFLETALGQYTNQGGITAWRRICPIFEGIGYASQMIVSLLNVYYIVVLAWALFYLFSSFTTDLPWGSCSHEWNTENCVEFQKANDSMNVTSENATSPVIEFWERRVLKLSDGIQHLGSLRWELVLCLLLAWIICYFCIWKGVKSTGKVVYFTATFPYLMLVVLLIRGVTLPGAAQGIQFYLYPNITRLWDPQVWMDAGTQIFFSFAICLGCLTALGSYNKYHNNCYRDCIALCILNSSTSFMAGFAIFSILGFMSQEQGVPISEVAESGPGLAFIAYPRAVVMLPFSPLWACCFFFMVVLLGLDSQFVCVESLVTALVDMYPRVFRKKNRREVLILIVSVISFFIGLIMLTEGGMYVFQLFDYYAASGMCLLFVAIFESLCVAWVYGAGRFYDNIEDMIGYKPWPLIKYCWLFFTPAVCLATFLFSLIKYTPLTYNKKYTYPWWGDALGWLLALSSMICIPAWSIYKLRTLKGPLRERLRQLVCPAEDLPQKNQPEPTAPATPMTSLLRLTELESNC

| IC50 (cells; read-out: pIC50 (converted)) [µM] | IC50 ([1]; read-out: pIC50 (converted)) [µM] | Activity [3] [%] | SMILES | Activity (HEK293 [2]) [%] | other results |
| --- | --- | --- | --- | --- | --- |
| 209 | 123 |  | O=C(O)/C=C/CCc1c[nH]cn1 |  |  |
|  |  | 59 | O=C(O)C1CCCc2[nH]cnc21 (stereo unspecified) | 81.6 |  |
|  |  | 54.8 | O=C(O)/C=C/c1c[nH]cn1 | 95.8 |  |
|  |  |  | COc1ccc(C(OCCN2CCC[C@H](C(=O)O)C2)(c2ccc(OC)cc2)c2ccc(OC)cc2)cc1 |  | IC50 (cells; read-out: IC50): 3 µM |
|  |  | 85 | O=C(O)C1CCc2[nH]cnc2C1 (stereo unspecified) | 82.4 |  |
| 234 | 1020 |  | O=C(O)CCCCCn1ccnc1 |  |  |
|  |  |  | NCCCCCC(=O)O | 65.1 |  |
| 3090 |  |  | NCC(=O)O [GLYCINE] |  |  |
|  |  | 73.3 | O=C(O)/C=C/c1ncc[nH]1 | 47.2 |  |
|  |  |  | O=C(O)c1ncc[nH]1 | 98.6 |  |
| 437 | 724 |  | O=C(O)CCCCc1ncc[nH]1 |  |  |
|  |  | 102 | O=C(O)/C=C\c1ncc[nH]1 | 93.6 |  |
| 224 | 115 |  | O=C(O)CCCCn1ccnc1 |  |  |
|  |  | 90.8 | O=C(O)c1c[nH]cn1 | 85.5 |  |
| 309 | 324 |  | O=C(O)/C=C/CCc1ncc[nH]1 |  |  |
|  |  |  | O=C(O)c1cccc2[nH]cnc12 |  | Activity (HEK293 [4]): 68.2%; Activity [5]: 78.2%; Activity [6]: 95.9%; Activity [7]: 94.2% |
|  |  |  | Cc1ccsc1C(=CCCN(C)C1CCCc2onc(O)c21)c1sccc1C (stereo unspecified) |  | IC50 (cells; read-out: IC50): > 300 µM; IC50 ([1]; read-out: IC50): 4 µM |
|  |  | 68.3 | O=C(O)CCCCCCCn1ccnc1 | 58.6 |  |
|  | 676 |  | O=C(O)CCCCCCn1ccnc1 | 71.1 |  |
| 617 |  | 73.3 | O=C(O)Cn1ccnc1 |  |  |
|  | 417 |  | O=C(O)CCCCc1c[nH]cn1 | 64.7 |  |
| 501 |  |  | NCCCCC(=O)O [5-AMINOVALERIC ACID] |  |  |
| 38 | 117 |  | O=C(O)CCCn1ccnc1 |  |  |
|  |  |  | O=C(O)c1ccc2[nH]cnc2c1 |  | Activity (HEK293 [4]): 67.8%; Activity [5]: 103%; Activity [6]: 108%; Activity [7]: 74.2% |
|  |  |  | NCCCCCCC(=O)O | 84.3 |  |
| 52.5 | 417 |  | O=C(O)CCCc1c[nH]cn1 |  |  |
| 191 |  | 72 | O=C(O)CCn1ccnc1 |  |  |
| 513 |  | 62.3 | O=C(O)CCCc1ncc[nH]1 |  |  |
| 81.3 |  | 61.7 | O=C(O)CCc1c[nH]cn1 |  |  |
|  |  |  | COc1ccc(C2(O)CCN(CCCn3c4ccccc4c4ccccc43)CC2)cc1 |  | IC50 (cells; read-out: IC50): 15 µM; IC50 ([1]; read-out: IC50): 19 µM |

| SMILES | IC50 (cells; read-out: pIC50 (converted)) [µM] | IC50 ([1]; read-out: pIC50 (converted)) [µM] | Activity [3] [%] | Activity (HEK293 [2]) [%] | other results |
| --- | --- | --- | --- | --- | --- |
| O=C(O)Cc1ncc[nH]1 |  |  | 75.3 | 63.4 |  |
| O=C(O)CCc1ncc[nH]1 | 309 |  | 62.8 |  |  |
| O=C(O)Cc1c[nH]cn1 [IMIDAZOLE ACETIC ACID] | 46.8 | 617 |  |  |  |
| NCCC(=O)O [BETA-ALANINE] | 34.7 | 2570 |  |  |  |
